Source: patent US20240270821A1, “GIP/GLP1/GCG TRI-RECEPTOR AGONISTS AND USES THEREOF” (priority 2023, published 2024)
Like-named read-outs stand apart in the source and are kept apart here. Marks after values point to notes of the source that are not given here. Starred links: 1 amine or outer side, 2 acyl side, 3 side chain; linkers in the order of their positions; H or OH if unused. Non-standard residues stand in square brackets, D forms with d. Groups on a side chain read outwards from the residue. No end group written: not given here. *: point of attachment. C20 diacid = O=C(O)CCCCCCCCCCCCCCCCCCC(=O)*; C18 diacid = O=C(O)CCCCCCCCCCCCCCCCC(=O)*; Phe(4-CN) = N#Cc1ccc(C[C@H](N)C(=O)O)cc1; αMePhe(2-F) = C[C@](N)(Cc1ccccc1F)C(=O)O; γGlu = O=C(O)[C@H](CCC(=O)[*:2])N[*:1]; εLys = N[C@@H](CCCCN[*:1])C(=O)[*:2]; αMe4Pal = C[C@](N)(Cc1ccncc1)C(=O)O; αMeL = CC(C)C[C@](C)(N)C(=O)O; AEEA = NCCOCCOCC(=O)O; Aib = CC(C)(N)C(=O)O

Experiments:
[1] = target: T1, hGIPR (Homo sapiens, UniProt P48546); experiment: Functional cAMP activity in the presence of 1% HSA; type: cell-based
T1 sequence (P48546 22-466): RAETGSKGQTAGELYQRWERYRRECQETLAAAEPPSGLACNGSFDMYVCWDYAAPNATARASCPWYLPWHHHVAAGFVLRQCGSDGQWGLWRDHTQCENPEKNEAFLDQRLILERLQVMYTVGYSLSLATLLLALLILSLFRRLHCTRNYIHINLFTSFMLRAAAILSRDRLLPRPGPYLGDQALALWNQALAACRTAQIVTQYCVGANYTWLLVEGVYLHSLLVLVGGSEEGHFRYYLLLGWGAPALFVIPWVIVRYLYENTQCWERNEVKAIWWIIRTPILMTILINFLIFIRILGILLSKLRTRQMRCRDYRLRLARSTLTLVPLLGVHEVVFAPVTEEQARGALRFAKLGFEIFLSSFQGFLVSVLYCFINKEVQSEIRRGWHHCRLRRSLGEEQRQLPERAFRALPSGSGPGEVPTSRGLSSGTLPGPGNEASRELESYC

[2] = target: T2, hGLP-1R (Homo sapiens, UniProt P43220); experiment: Functional cAMP activity in the presence of 1% HSA; type: cell-based
Target sequence in this assay (P43220 24-463): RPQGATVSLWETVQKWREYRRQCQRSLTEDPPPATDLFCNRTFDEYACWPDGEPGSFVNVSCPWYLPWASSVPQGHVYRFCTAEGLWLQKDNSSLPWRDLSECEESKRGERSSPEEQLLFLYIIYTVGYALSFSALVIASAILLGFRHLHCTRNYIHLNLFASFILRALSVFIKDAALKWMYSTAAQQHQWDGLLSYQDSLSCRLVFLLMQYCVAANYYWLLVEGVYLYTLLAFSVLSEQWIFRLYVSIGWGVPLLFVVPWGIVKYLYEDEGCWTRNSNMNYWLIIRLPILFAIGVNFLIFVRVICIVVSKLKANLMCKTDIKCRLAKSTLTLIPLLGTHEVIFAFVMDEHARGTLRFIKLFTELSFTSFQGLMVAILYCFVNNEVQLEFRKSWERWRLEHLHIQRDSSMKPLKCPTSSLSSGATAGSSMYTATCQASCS

[3] = In vivo ileum (distal loop) absorption assay; conditions: Sprague Dawley, rat, 300 μM peptide with 100 mM C10, rats; for level at time molar at 10 min: read-out: 10 min IL plasma concentration; for level at time molar at 20 min: read-out: 20 min IL plasma concentration; for level at time molar at 40 min: read-out: 40 min IL plasma concentration; for level at time molar at 1 h: 60 min, read-out: 60 min IL plasma concentration
Description: Ileum absorption of the exemplary polypeptides in the presence of C10 in rats is evaluated using a previously reported intestinal closed loop model (Lawrence, S. A.; Blankenship, R.; Brown, […].; Ellis, B.; Thangaraju, A.; Datta-Mannan, A., Influence of FcRn binding properties on the gastrointestinal absorption and exposure profile of Fc molecules. […] Overnight fasted Sprague Dawley rats with body weights between 250-280 grams are anesthetized by inhaling isoflurane and placed on a warm surgical table maintained by circulating water at 37 °C. The surgical area is shaved, and the skin is disinfected with betadine scrub followed by 70% isopropyl alcohol. An approximately 2 cm ventral midline incision is made to expose intestine, and 10 cm of an ileum segment is tied off. The peptides are formulated with 100 mM C10 in Tris buffer (pH 8.0, 50 mM) at a final concentration of 300 μM. The formulations are administered directly into the ileum loop. […] Blood samples are collected into tubes containing […] (5%) and processed to plasma for subsequent analyses. Peptide concentrations in the plasma are determined by LC/MS.

[4] = target: human GLP1-R (Homo sapiens, UniProt P43220); experiment: GLP1-R internalization assay in HEK293 cells; type: cell-based; conditions: for Internalization % TOP: normalized to maximum concentration of GLP-1 (100%)
human GLP1-R, sequence (P43220 24-463): as above

[5] = target: T1, hGIPR; experiment: Functional cAMP activation in the presence of 0.1% casein (no HSA); type: cell-based;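 for Relative cAMP EC50, hGIPR: intracellular cAMP rise after 30 min at 37 °C read by HTRF against a standard curve, scaled between buffer alone (0%) and top control ligand concentration (100%), four-parameter fit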;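 for Relative cAMP EC50, hGLP-1R: intracellular cAMP rise after 30 min at 37 °C read by HTRF, normalized between buffer only (0%) and maximal control ligand (100%), four-parameter variable-slope fit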
[6] = target: human GcgR (Homo sapiens, UniProt P47871); experiment: Functional cAMP activity in the presence of 1% HSA; type: cell-based
human GcgR, sequence (P47871 26-477): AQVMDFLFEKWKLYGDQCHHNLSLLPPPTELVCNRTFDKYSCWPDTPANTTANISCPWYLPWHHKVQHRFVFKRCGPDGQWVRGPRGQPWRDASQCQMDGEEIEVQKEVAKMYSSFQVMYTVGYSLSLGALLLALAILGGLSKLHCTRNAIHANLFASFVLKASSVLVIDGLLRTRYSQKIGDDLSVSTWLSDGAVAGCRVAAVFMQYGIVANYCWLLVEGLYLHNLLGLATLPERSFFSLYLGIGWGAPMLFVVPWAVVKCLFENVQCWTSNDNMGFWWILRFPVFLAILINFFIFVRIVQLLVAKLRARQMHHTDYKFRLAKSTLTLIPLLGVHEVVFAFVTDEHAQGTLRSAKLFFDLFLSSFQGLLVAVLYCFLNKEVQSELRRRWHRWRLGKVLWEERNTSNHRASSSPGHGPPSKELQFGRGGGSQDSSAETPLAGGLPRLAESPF

[7] = target: hGcgR (Homo sapiens, UniProt P47871); experiment: Functional cAMP activation in the presence of 0.1% casein (no HSA); type: cell-based;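 note: intracellular cAMP rise after 30 min at 37 °C, read by HTRF against a cAMP standard curve, scaled from buffer only (0%) to maximal control ligand response (100%)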
hGcgR, sequence (P47871 26-477): as above

[8] = target: T2, hGLP-1R; experiment: as above; type: cell-based
Target sequence in this assay (P43220 24-463): as the sequence (P43220 24-463) above

[9] = Body weight in diet-induced obese C57BL/6 mice; type: in vivo; conditions: percent of starting weight, DIO mice, mean ± SEM n=5
Summary of the method: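 Male C57BL/6 DIO mice (41-50 g, 5 per group, randomized by weight) on calorie-rich diet received subcutaneous doses 30-90 min before dark onset, QD or Q3D for 9-16 days. Body weight measured daily, expressed as percent of starting weight, mean±SEM.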

[10] = Pharmacokinetics in male Sprague Dawley rats, single subcutaneous administration; conditions: rat, in vivo, sc, 10 nmol/kg
Description: The pharmacokinetics of the exemplary analogs are evaluated following a single subcutaneous (SC) administration of 10 nmol/kg (dissolved in 40 mM Tris pH8) or single 4 mg/kg (mixed with 250 mM sodium decanoate/C10 in 40 mM Tris pH8) intrajejunal (IJ) administration to male Sprague Dawley rats. Blood samples are collected over 96 hours following SC administration and 72 hours following IJ dosing, and resulting individual plasma concentrations are used to calculate pharmacokinetic parameters. Peptide plasma (K3 EDTA) concentrations are determined using a qualified LC/MS method that measured the intact mass of the analog. Each peptide and an analog as an internal standard are extracted from rat plasma using methanol. A High Resolution Instrument was used for LC/MS detection.

[11] = target: T2, hGLP-1R; experiment: GLP-1R CHO cell β-arrestin recruitment assay; type: cell-based; set-up: host or cells: CHO-K1 (PathHunter, assay-ready frozen cells); conditions: for EC50: CHO-K1 PathHunter, β-arrestin-2, 0.1% casein, read-out: hGLP1R β-arrestin Rel EC50; for % Stimulation Max: normalized to GLP-1(7-36) as maximum control;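 for all read-outs here: luminescence read after 90 min peptide exposure at 37 °C and a further 60 min with detection reagent at room temperature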
Target sequence in this assay (P43220 24-463): as above
Target sequence in this assay (P32121 whole entry partner): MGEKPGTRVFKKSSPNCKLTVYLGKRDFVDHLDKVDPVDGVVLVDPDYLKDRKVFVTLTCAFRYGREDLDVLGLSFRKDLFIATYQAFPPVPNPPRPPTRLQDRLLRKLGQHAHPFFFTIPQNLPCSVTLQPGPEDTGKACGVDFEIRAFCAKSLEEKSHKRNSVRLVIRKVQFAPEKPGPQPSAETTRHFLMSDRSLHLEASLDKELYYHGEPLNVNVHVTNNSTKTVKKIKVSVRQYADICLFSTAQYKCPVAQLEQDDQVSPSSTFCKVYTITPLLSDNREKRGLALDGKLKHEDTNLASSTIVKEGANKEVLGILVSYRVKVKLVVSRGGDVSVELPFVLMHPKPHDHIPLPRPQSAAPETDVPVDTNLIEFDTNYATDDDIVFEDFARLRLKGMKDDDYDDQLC

[12] = read-out: cAMP Rel EC50, hGLP-1R
[13] = HEK293 cells expressing SNAP-GLP-1R, read-out: GLP1R Internalization EC50
[14] = in the presence of 0.1% casein (no HSA), geometric mean, read-out: Relative cAMP EC50, hGIPR
[15] = in the presence of 0.1% casein (no HSA), geometric mean, read-out: Relative cAMP EC50, hGcgR
[16] = in the presence of 0.1% casein (no HSA), geometric mean, read-out: Relative cAMP EC50, hGLP-1R

CC[C@H](C)[C@H](NC(=O)[C@H](Cc1ccccc1)NC(=O)[C@H](C)NC(=O)C(C)(C)NC(=O)[C@H](CCC(N)=O)NC(=O)[C@H](C)NC(=O)[C@H](CCCCNC(=O)COCCOCCNC(=O)CC[C@H](NC(=O)CCCCCCCCCCCCCCCCC(=O)O)C(=O)O)NC(=O)[C@H](CCCCN)NC(=O)[C@H](CC(=O)O)NC(=O)[C@H](CC(C)C)NC(=O)[C@](C)(CC(C)C)NC(=O)[C@H](CCC(N)=O)NC(=O)[C@H](CO)NC(=O)[C@H](Cc1ccccc1)NC(=O)[C@H](CC(=O)O)NC(=O)[C@H](CO)NC(=O)[C@@H](NC(=O)[C@H](Cc1ccccc1)NC(=O)[C@@H](NC(=O)CNC(=O)[C@H](CCC(N)=O)NC(=O)C(C)(C)NC(=O)[C@@H](N)Cc1ccc(O)cc1)[C@@H](C)O)[C@@H](C)O)C(=O)N[C@@H](CCC(=O)O)C(=O)N[C@@H](Cc1ccc(O)cc1)C(=O)N[C@@H](CC(C)C)C(=O)N[C@@H](CC(C)C)C(=O)N[C@@H](CCC(=O)O)C(=O)NC(C)(C)C(=O)NCC(=O)N1CCC[C@H]1C(=O)N[C@@H](CO)C(=O)N[C@@H](CO)C(=O)NCC(=O)N[C@@H](C)C(=O)N1CCC[C@H]1C(=O)N1CCC[C@H]1C(=O)N1CCC[C@H]1C(=O)N[C@@H](CO)C(=O)NCC(=O)N[C@@H](CO)C(N)=O [Example 151]
EC50 [1]: 14.9 nM | EC50 [2]: 384 nM | AUC [3]: 0.0886 µM·h | level at time molar at 10 min [3]: 69 nM | level at time molar at 20 min [3]: 95 nM | level at time molar at 40 min [3]: 115 nM | level at time molar at 1 h [3]: 124 nM | EC50 [4]: 77.8 nM | Internalization % TOP [4]: 55% | EC50 [5]: 0.0784 nM | EC50 [6]: 1420 nM | EC50 [7]: 3.5 nM | EC50 [8]: 1.6 nM

Y[Aib]QGTFTSDFSQ[αMeL]LDKK([AEEA-γGlu-C18 diacid])AQ[αMe4Pal]AFIEYLIE[Aib]GESSGAPPPSGS-NH2 [Example 232]
EC50 [1]: 24.6 nM | EC50 [2]: 226 nM | AUC [3]: 0.202 µM·h | level at time molar at 10 min [3]: 186 nM | level at time molar at 20 min [3]: 235 nM | level at time molar at 40 min [3]: 255 nM | level at time molar at 1 h [3]: 256 nM | EC50 [4]: 44.7 nM | Internalization % TOP [4]: 45.5% | EC50 [5]: 0.102 nM | EC50 [6]: 482 nM | EC50 [7]: 2.42 nM | EC50 [8]: 0.819 nM

H-Y[Aib]QGT[αMePhe(2-F)]TSD[Phe(4-CN)]SILLDKQAQK([AEEA-AEEA-γGlu-C20 diacid])AFIEYLLEGGPSSGEPPPSEG-NH2 [Example 321]
EC50 ([1]; read-out: cAMP Rel EC50, hGIPR): 13 nM | Body weight (%) ([9]; 10 nmol/kg SC Q3D, 14 days): 87.14 +/− 0.59*** % | EC50 [2, 12]: 110 nM | CL/F [10]: 0.137 mL/min/kg | half-life [10]: 26.2 h | EC50 [4, 13]: 27.1 nM | Internalization % TOP [4]: 92.8% | EC50 [5, 14]: 0.0912 nM | EC50 ([6]; read-out: cAMP Rel EC50, hGcgR): 836 nM | EC50 [7, 15]: 4.49 nM | EC50 [8, 16]: 0.798 nM | EC50 [11]: 8.78 nM | % Stimulation Max [11]: 90.1%

H-Y[Aib]QGTFTSDYSI[αMeL]LDKQAAK([εLys-εLys-γGlu-C20 diacid])QFVEWLLA[Aib]GPSSGEPPPSEG-NH2 [Example 329]
EC50 ([1]; read-out: cAMP Rel EC50, hGIPR): 42.6 nM | EC50 [2, 12]: 204 nM | CL/F [10]: 0.322 mL/min/kg | half-life [10]: 12.6 h | EC50 [4, 13]: 34 nM | Internalization % TOP [4]: 91.1% | EC50 [5, 14]: 0.207 nM | EC50 ([6]; read-out: cAMP Rel EC50, hGcgR): 842 nM | EC50 [7, 15]: 3.47 nM | EC50 [8, 16]: 0.926 nM | EC50 [11]: 6.11 nM | % Stimulation Max [11]: 74.5%

H-Y[Aib]QGTFTSDYSI[αMeL]LDKK([AEEA-γGlu-C20 diacid])AQRAFIEYLLEGGPSSGEPPPSEG-NH2 [Example 289]
EC50 ([1]; read-out: cAMP Rel EC50, hGIPR): 105 nM | Body weight (%) ([9]; 10 nmol/kg SC Q3D, 14 days): 82.32 ± 1.25 % | Body weight (%) ([9]; 10 nmol/kg SC QD, 16 days): 60.94 ± 1.87 % | EC50 [2, 12]: 139 nM | CL/F [10]: 0.0645 mL/min/kg | half-life [10]: 22.4 h | EC50 [4, 13]: 10.9 nM | Internalization % TOP [4]: 86.5% | EC50 [5, 14]: 0.382 nM | EC50 ([6]; read-out: cAMP Rel EC50, hGcgR): 1750 nM | EC50 [7, 15]: 5.02 nM | EC50 [8, 16]: 0.449 nM | EC50 [11]: 5.96 nM | % Stimulation Max [11]: 47.5%
